Data: US11286258B2, “Nature-inspired anticancer and antibacterial motifs and pharmaceutical composition thereof” (University of Sharjah, priority 2020, dated 2022)
In brackets after ≈: the same amount, converted by molar mass.

What was measured:
[1] = system: Acinetobacter baumannii ATCC 19606; test: MIC broth microdilution, A. baumannii ATCC 19606; type: cell-based; conditions: Acinetobacter baumannii, ATCC19606; not MDR; overnight incubation
Method: (§1) Antibacterial activity: The compounds were tested for the minimum inhibitory concentrations (MIC), which is the lowest concentration of a chemical required to inhibit visible microbial growth following overnight incubation. MIC values were determined using broth microdilution method according to the Clinical and Laboratory Standards Institute guidelines (CLSI, 2015, M07-A10). Mueller-Hinton broth was used as a culture medium in all the experiments. Exponentially growing bacterial cells were prepared in Mueller-Hinton broth at a concentration of approximately 5×10^5 CFU/mL. Two-fold serial dilutions of the test compound (8 concentrations ranged between 100-0.78 μg/mL) were tested. […] In each experiment, solvent (DMSO) was used as a negative control, un-treated control (composing of bacteria in Mueller-Hinton broth) was used as a growth control, blank (culture media alone) was used as sterility control. The 96-well microplate with the test compounds was incubated overnight at 37° C. Turbidity in wells indicated bacterial growth.
(§2) The compounds were tested on six MDR Gram-positive bacteria including three clinical isolates of methicillin-resistant Staphylococcus aureus (MRSA-1, MRSA-2 and MRSA-3) and three reference MRSA strains (ATCC33591, ATCC33592 and ATCC700699). They were also tested on three MDR Gram-negative bacteria including New Delhi metallo-beta-lactamase (NDM-1) positive, carbapenem-resistant E. coli (ATCC BAA2469), extended-spectrum beta-lactamase (ESBL) producing, colistin-resistant E. coli (CDC-AR-0346) and carbapenem-resistant Acinetobacter baumannii (ATCC BAA1605), in addition to two non-MDR bacteria from the same species, namely E. coli (ATCC 25922) Acinetobacter baumannii (ATCC 19606).

[2] = system: MRSA-ATCC33591; test: MIC broth microdilution, MRSA ATCC33591; type: cell-based, Staphylococcus aureus; conditions: Staphylococcus aureus; overnight incubation, Mueller-Hinton broth; read-out: MIC MRSA-ATCC33591
Method: as §1, §2

[3] = system: E. coli ATCC BAA2469 (NDM-1 carbapenem-resistant); test: MIC broth microdilution, E. coli ATCC BAA2469; type: cell-based, Escherichia coli; conditions: Escherichia coli, ATCCBAA2469, MDR; overnight incubation
Method: as §1, §2

[4] = system: MRSA-ATCC33592; test: MIC broth microdilution, MRSA ATCC33592; type: cell-based, Staphylococcus aureus; conditions: Staphylococcus aureus; overnight incubation, Mueller-Hinton broth; read-out: MIC MRSA-ATCC33592
Method: as §1, §2

[5] = system: E. coli ATCC25922; test: MIC broth microdilution, E. coli ATCC25922; type: cell-based, Escherichia coli; conditions: Escherichia coli, ATCC25922; not MDR; overnight incubation
Method: as §1, §2

[6] = system: 6 MRSA strains; test: MIC, panel of 6 MRSA strains; type: cell-based; conditions: Staphylococcus aureus, across the panel of tested Gram-positive strains, read-out: MIC against all the 6 MRSA strains
Method: as §1, §2

[7] = system: MDR E. coli strains; test: MIC, both MDR E. coli strains; type: cell-based; conditions: Escherichia coli, ATCCBAA2469; across ATCC BAA2469 and CDC-AR-0346
Method: as §1
The compounds were tested on six MDR Gram-positive bacteria including three clinical isolates of methicillin-resistant Staphylococcus aureus (MRSA-1, MRSA-2 and MRSA-3) and three reference MRSA strains (ATCC33591, ATCC33592 and ATCC700699). […]

[8] = system: Acinetobacter baumannii ATCC BAA1605 (carbapenem-resistant); test: MIC broth microdilution, A. baumannii ATCC BAA1605; type: cell-based; conditions: Acinetobacter baumannii, ATCCBAA1605, MDR; overnight incubation
Method: as §1, §2

[9] = system: MRSA-ATCC700699 (VISA); test: MIC broth microdilution, MRSA ATCC700699 (VISA); type: cell-based, Staphylococcus aureus; conditions: Staphylococcus aureus; strain intermediately resistant to vancomycin; overnight incubation; read-out: MIC MRSA-ATCC700699 (VISA)
Method: as §1, §2

[10] = system: MRSA-1 (clinical isolate); test: MIC broth microdilution, MRSA-1; type: cell-based, Staphylococcus aureus; conditions: Staphylococcus aureus, MRSA; overnight incubation, Mueller-Hinton broth; read-out: MIC MRSA-1 (clinical isolate)
Method: as §1, §2

[11] = system: HELA; test: MTT cell viability, HELA; type: cell-based; conditions: Homo sapiens, cervical cancer, 48 h of drug treatment, average of three experiments
From the text: (§3) Cell culture: In this study five different cancer cell lines were used, human lung carcinoma (A549), human breast adenoma (MCF-7), Cervical carcinoma (Hela), hepatocellular carcinoma (Hep3B), and colorectal adenocarcinoma (HCT-116). These cells were obtained from the European Collection of Cell Cultures (ECACC, UK). Hep3B cells were maintained in Dulbecco's Modified Eagle Medium (DMEM: Sigma-Aldrich), and the four other cell lines were maintained in Roswell Park Memorial Institute medium (RPMI, Sigma-Aldrich, St. Louis, Mo., USA), which was supplemented with 10% fetal bovine serum (FBS, Sigma-Aldrich) and 1% penicillin/streptomycin (Sigma-Aldrich). Cells were incubated all the time at 37° C. in a humidified atmosphere of 5% CO2. Cell viability studies: Cell viability was assessed using the MTT assay as described before. In brief, all cancer cell lines were seeded at a density of 4×10^4/well in 96 well flat-bottom plates. After 24 h from seeding, cells were treated with the synthesized compounds and left for an incubation period of 48 h. Upon reaching the indicated time point, the media was removed and replaced with 200 μL fresh media containing 0.5 mg/mL of MTT tetrazolium dye (Sigma-Aldrich). Cells were then incubated with MTT solution for 2 h at 37° C. The resultant formazan crystals were dissolved in 200 μl/well of DMSO and absorbance was measured at 570 nm using a microplate reader (Thermo Scientific).

[12] = system: AGS; test: MTT cell viability, AGS; type: cell-based; conditions: Homo sapiens, stomach cancer, 48 h of drug treatment, average of three experiments
Method: (§4) Cell viability studies: Cell viability was assessed using the MTT assay as described before. In brief, all cancer cell lines were seeded at a density of 4×10^4/well in 96 well flat-bottom plates. After 24 h from seeding, cells were treated with the synthesized compounds and left for an incubation period of 48 h. Upon reaching the indicated time point, the media was removed and replaced with 200 μL fresh media containing 0.5 mg/mL of MTT tetrazolium dye (Sigma-Aldrich). Cells were then incubated with MTT solution for 2 h at 37° C. The resultant formazan crystals were dissolved in 200 μl/well of DMSO and absorbance was measured at 570 nm using a microplate reader (Thermo Scientific).

[13] = system: MRSA-2 (clinical isolate); test: MIC broth microdilution, MRSA-2; type: cell-based, Staphylococcus aureus; conditions: Staphylococcus aureus, MRSA; overnight incubation, Mueller-Hinton broth; read-out: MIC MRSA-2 (clinical isolate)
Method: as §1, §2

[14] = system: MRSA-3 (clinical isolate); test: MIC broth microdilution, MRSA-3; type: cell-based, Staphylococcus aureus; conditions: Staphylococcus aureus, MRSA; overnight incubation, Mueller-Hinton broth; read-out: MIC MRSA-3 (clinical isolate)
Method: as §1, §2

[15] = system: normal epithelial cells (HMEC); test: Cell viability, normal epithelial cells; type: cell-based; conditions: Homo sapiens, 48 h of drug treatment, average of three experiments
Method: as §4

[16] = system: Hela cells; test: Western blot, autophagy- and iron metabolism-related proteins, Hela; type: cell-based, human
Method: Western Blotting (autophagy- and iron metabolism-related proteins): Cells were grown in DMEM supplemented with 10% FBS and 1×PEST (Penicillin and streptomycin antibiotics) at 37° C. in incubator having humidified atmosphere with 5% CO2. The media were removed and cells were washed twice with 1× cold PBS. Cells lysis was performed with RIPA lysis buffer containing (150 mM sodium chloride, 1.0% NP-40, 0.1% SDS, 50 mM Tris pH 8.0, 0.5% sodium deoxycholate supplemented with protease inhibitors cocktail). Cells were kept on icebox during the lysis process. Cold lysis buffer was added to each well directly and then cells were scraped and collected in 1.5 ml Eppendorf tube. Cell lysis was kept on icebox for 20 minutes and then centrifuged at 4° C. for 10 minutes. The supernatant was collected and the pellet was discarded. After, protein quantification, samples were boiled in 5× loading buffer at 95° C. for 5 minutes. After completion of the gel running and transfer process, the membrane was stained with ponceau solution. After that, the membrane was washed with 1×TBST and then blocked in 5% non-fat dry milk for 1 hr at room temperature. The membrane was washed 3 times with 1×TBST and then incubated with indicated primary antibodies at 4° C. overnight. Primary antibodies were removed; the membrane was washed 3 times with 1×TBST and then incubated with secondary antibodies for 2 h at room temperature. Secondary antibodies were diluted in 5% non-fat dry milk in 1× TB ST. After removal of the secondary antibody, the membrane was washed 3 times with 1×TBST. The membrane was incubated in ECL solution and the signal was developed using Gel Doc system from Biorad.

[17] = system: MDA-MB-468; test: MTT cell viability, MDA-MB-468; type: cell-based; conditions: Homo sapiens, breast cancer, 48 h of drug treatment, average of three experiments
Method: as §4

[18] = system: HEP3B; test: MTT cell viability, HEP3B; type: cell-based; conditions: Homo sapiens, liver cancer, 48 h of drug treatment, average of three experiments
From the text: as §3

[19] = system: MDA-MB-231; test: MTT cell viability, MDA-MB-231; type: cell-based; conditions: Homo sapiens, breast cancer, 48 h of drug treatment, average of three experiments
Method: as §4

[20] = system: SKOV3; test: MTT cell viability, SKOV3; type: cell-based; conditions: Homo sapiens, SK-OV-3; 48 h of drug treatment; average of three experiments
Method: as §4

[21] = system: A549; test: MTT cell viability, A549; type: cell-based; conditions: Homo sapiens, lung cancer, 48 h of drug treatment, average of three experiments
From the text: as §3

[22] = system: HCT-116; test: MTT cell viability, HCT-116; type: cell-based; conditions: Homo sapiens, colon cancer, 48 h of drug treatment, average of three experiments
From the text: as §3

[23] = system: SKBR3; test: MTT cell viability, SKBR3; type: cell-based; conditions: Homo sapiens, SK-BR-3; breast cancer; 48 h of drug treatment; average of three experiments
Method: as §4

[24] = system: MCF-7; test: MTT cell viability, MCF-7; type: cell-based; conditions: Homo sapiens, MCF7; breast cancer; 48 h of drug treatment; average of three experiments
From the text: as §3

[25] = system: JIMT1; test: MTT cell viability, JIMT1; type: cell-based; conditions: Homo sapiens, JIMT-1; breast cancer; 48 h of drug treatment; average of three experiments
Method: as §4

O=C(O)c1cn(C2CC2)c2cc(N3CCNCC3)c(F)cc2c1=O [Ciprofloxacin, reference compound]
MIC [1]: 0.625 µg/mL (≈ 1.89 µM) | MIC [2]: 0.3 µg/mL (≈ 0.905 µM) | MIC [3]: 100 µg/mL (≈ 302 µM) | MIC [4]: 0.3 µg/mL (≈ 0.905 µM) | MIC [5]: < 0.02 µg/mL | MIC [6]: 0.3 to 32 µg/mL (≈ 0.905 to 96.6 µM) | MIC [7]: 16 to 100 µg/mL (≈ 48.3 to 302 µM) | MIC [8]: 50 µg/mL (≈ 151 µM)

O=[N+]([O-])c1ccc(N/N=C2\C=C[C@@]3(CC2)CC[C@@H]2NCCc4c2n3c2ccccc42)cc1 [Compound 1d]
MIC [9]: 3.12 µg/mL (≈ 7.31 µM) | MIC [10]: 3.12 µg/mL (≈ 7.31 µM) | IC50 [11]: 3.14 ± 0.04 µM | MIC [2]: 3.12 µg/mL (≈ 7.31 µM) | IC50 [12]: 5.37 ± 0.17 µM | MIC [13]: 3.12 µg/mL (≈ 7.31 µM) | MIC [14]: 3.12 µg/mL (≈ 7.31 µM) | MIC [4]: 3.12 µg/mL (≈ 7.31 µM) | IC50 [15]: 42.04 ± 0.08 µM | Expression and metabolism of autophagy marker LC3B1/II [16]: upregulate | Expression of DNA damage marker pH2AX [16]: induce | IC50 [17]: 3.06 ± 0.17 µM | IC50 [18]: 2.32 ± 0.16 µM | IC50 [19]: 4.22 ± 0.1 µM | IC50 [20]: 6.52 ± 0.2 µM | IC50 [21]: 5.22 ± 0.03 µM | IC50 [22]: 2.49 ± 0.02 µM | IC50 [23]: 3.93 ± 0.16 µM | IC50 [24]: 3.09 ± 0.04 µM | IC50 [25]: 4 ± 0.1 µM
